Values joined by “and” are separate entries in the source; they are usually repeats but may differ in a detail not shown here. Identical values can stand only once.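 Protocol summary: plate cells (96-well), add compound at 5 concentrations, incubate 48 h, interpolate endpoints linearly. GI50 = concentration required for 50% inhibition of growth. At the TGI there is no net growth.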
Tests used:
Experiment in all cases: NCI tumour cell line growth inhibition, 48 h
[1] = system: RXF-631 renal
[2] = system: XF 498 CNS
[3] = system: SNB-78 CNS
[4] = system: SN12K1 renal
[5] = system: P388 leukemia
[6] = system: P388/ADR leukemia

Structure (SMILES) | TGI [2] [µM] | TGI [3] [µM] | also measured
CCCCCCCSCC1C(=O)C23C(O)C1CCC2C12COC3(O)C(O)C1C(C)(C)CCC2O (stereo not drawn) | 33.4 | 47.4 | TGI [1]: 22 µM
COC1=CC(=O)[C@]2(C)[C@H](C1=O)C(C)[C@H]2c1ccccc1 (stereo partly drawn) | > 100 | > 100 | TGI [1]: > 100 µM
ClCc1ccc2ccc3ccc(CCl)nc3c2n1 | 4.45 | 10.3 | TGI [4]: 4.4 µM; TGI [5]: 7.32 µM; TGI [6]: 5.07 µM
O=C1c2c(nc3ccccc3c2-c2ccccc2)CN1Nc1ccccc1 | > 100 |  | 
C/C(=N\O)C(CN1CCCCC1)C(c1ccccc1)c1c(O)c2ccccc2oc1=O (stereo not drawn) | > 100 |  | 
N#CN1CCC=C(c2cc3ccccc3[nH]2)C1 |  |  | TGI [1]: > 448 µM
Cc1ccc(S(=O)(=O)c2c3[nH]c4ccccc4nc3n3c2nc2ccccc23)cc1 | > 100 | > 100 | 
CC1=NN(C(=O)c2ccc(Cl)cc2)C(=O)/C1=C/c1ccc(O)cc1 | > 100 |  | 
COc1cc(C2c3cc4c(cc3[C@@H](NCCCN(C)C)[C@H]3COC(=O)C23)OCO4)cc(OC)c1O (stereo partly drawn) |  | > 37.5 | GI50 [3]: 2.6 µM and 11.6 µM
C=CCCCCCC(O)C(O)C/C=C\C/C=C\CC (stereo not drawn) | > 18.8 | > 18.8 | 
C/C(=N\NC(=S)NNC(=S)N(C)c1ccccc1)c1ccccn1 | > 100 | > 100 | 
CC(C)(c1ccc(OC#N)cc1)c1ccc(OC#N)cc1 |  | > 100 | TGI [1]: > 100 µM
CCOC(=O)/C=C/c1c[nH]c(C(=O)OCC)c1 | > 100 | > 100 | TGI [4]: > 100 µM; TGI [5]: > 100 µM; TGI [6]: > 100 µM
N#CC(NNC(=O)c1ccccc1O)c1ccccc1 (stereo not drawn) |  | > 100 | 
c1ccc2c3c([nH]c2c1)C1(CCCCC1)c1c([nH]c2ccccc12)C31CCCCC1 | > 100 | 45.4 | 

— PubChem BioAssay (NCI)
